Laboratory results from patent US4680382A, “Analogues of actinomycin D” (priority 1986, dated 1987).
*1 amine or outer side, *2 acyl side, *3 side chain or, on linkers, in order; H or OH if unused. Where a SMILES comes first, the peptide text is derived from it. Bridges are numbered along the chain shown (N, C = ends). Roman numbers before positions name the chains, in order. [ ]: non-standard residue; d: D form. Actinocin(9to1) = Cc1c2oc3c(C)ccc(C(=O)[*:1])c3nc-2c(C(=O)[*:2])c(N)c1=O; NMeV = CN[C@H](C(=O)O)C(C)C; Sar = CNCC(=O)O

Legend:
[1] = tested on: P388/ADR; assay: In vivo activity against P388/adriamycin-resistant leukemia; set-up: species or system BDF1 mice; settings: for P388/ADR optimal dose: ip, days 1, 5 and 9
Experimental: ^a Male BDF1 mice inoculated ip: 10^6 cells inoculum, day 0.
Drugs administered in 10% dimethyl sulfoxidesaline on days 1, 5 and 9. %
ILS = percent increase in life span. Fractions in parentheses = tumorfree
survivors/total on day 60. P388/S (adriamycin sensitive) and P388/ADR
(adriamycin resistant) tumors were evaluated in the same experiment with […]

[2] = tested on: DNA; assay: Viscometry of DNA (test for intercalative binding); settings: increasing [ligand]/DNA base pair ratio
Experimental: The equilibrium binding constants (Kapp and Bapp) of the "reverse" methyl 7a and the "reverse" phenyl 8a were determined from the Scatchard plots of binding isotherms; the Scatchard plots are produced according to the previously described methods using calf-thymus DNA [Sengupta et al, Biochem. Biophys. Acta 521, 89 (1978)]. The Kapp values are 2.5×10^6 and 2.3×10^6 M^-1, respectively; corresponding Bapp values are 0.038 and 0.036. […] But, these "reverse" analogues associate with DNA less strongly; their frequency of binding is also lower compared to that of AMD. However, the "reverse" analogues fail to cause any measurable change in the ratio of the intrinsic viscosity (γ) of DNA with the increasing ratios of [ligand]/DNA base pair (r), even when low molecular weight DNAs (0.5×10^5 to 1.0×10^5) were employed.

[3] = tested on: liver microsomes; assay: EPR detection of free-radical intermediates with liver microsomes and NADPH (anaerobic); format: biochemical; settings: NADPH, potassium phosphate buffer
Experimental: No free-radical intermediates were detected in the absence of enzyme or substrates.
Melting points are determined on a Thomas-Hoover melting point apparatus at a heating rate of 2° C./min. Thin-layer chromatography was performed on silica gel plates (Brinkmann Instrument Inc.). Solvent systems were (A) EtOAc-acetone (4:1), (B) CHCl3 -MeOH (9:1) and (C) Cifferri, the organic phase of the mixture EtOAc-MeOH-H2 O (20:1:20). High-performance liquid chromatography was carried out on a Varian Model 5020 gradient liquid chromatograph equipped with a CD-111L chromatography data system and fitted with a Varian reversed-phase C18 column with the following solvent systems: I, CH3 CN-5 mM NH4 OAc buffer, pH 6.4 (68:32 isocratic), flow rate 1.5 mL/min; II, 65-95% water-methanol gradient for 70 min, 1 mL/min; III, 10-90% H2 O-MeOH gradient for 120 min, 1 mL/min, with UV-visible variable- and fixed-wavelength dual detectors at 254, 440, 470 and 520 nm. IR spectra were obtained on a Perkin-Elmer Model 237 Infra Cord with KBr micropellets or in chloroform solutions. UV-visible spectra were obtained on a Gilford 250 spectrophorometer, which, with the addition of a base-line reference compensator (Analog Multiplexer 5053) and thermoprogrammer, auto four cell programmer and thermoelectric cell holder 2577, were used to obtain thermal denaturation curves. Specific rotation values were determined in chloroform solutions with a Cary 60 spectropolarimeter. NMR spectra were obtained in a JEOL FQ-90 MHz spectrometer equipped with Fourier transform. EPR spectra analyses were recorded in a Varian E-9 EPR spectrometer. All elemental analyses were within ±0.4%.

[4] = Metabolism of tritiated drugs in tumor cell homogenate (sonicated P388 cells); format: in vitro ADME, murine; settings: tumor cell homogenate (T), 16 hr; for Percent isolated: unconverted: 37° C.
Experimental: A method of using tumor cell sonicates was developed to study the metabolism of the analogues of AMD. By use of sonicated cells, the dilution effects that would occur if flasks of cultured cells were used are avoided. Although the cells are disrupted by this method, their enzyme systems appear to remain active. Large numbers of tumor cells (P388 murine leukemia) were sonicated in Earle's balanced salt solution (EBSS) and were incubated with tritiated AMD and its analogues 7a and 9a (Table II) for 16 hr. In another experiment, the analogues were treated with rat hepatic microsomes at 37° C. for 6 hr in the presence of a NADPH-generating system. The metabolic products were isolated and identified with the following results (Table II). […] In the microsomes, the major metabolites were in unconjugated forms; in the tumor cell homogenates, the major identified metabolites were glucuronide and sulfate conjugated forms. It should be pointed out that in these metabolic experiments, the identification of these glucuronide and/or sulfate conjugates was made only on the basis of the disappearance of the peaks from the HPLC chromatograms upon treatment with deconjugating enzymes glucarase.
A large number of P388 cells (10^8 cells) were sonicated in Earle's balanced salt solution (EBSS) in ice. Tritiated analogues 7a, 8a and AMD, 0.4 Ci/mmol, were added and the mixtures were incubated at 37° C. for 16 hr. Drugs in EBSS without the addition of the cell sonicates served as controls. The samples were treated with urea to bring the urea concentration to 5M. The procedure helped to free all drugs that associated noncovalently with DNA. After 60 min at room temperature, the samples were centrifuged through Amicon 1053 cone filters (molecular weight cut-off approximately 25000) after adjustment of pH to 5 to facilitate extraction of unconjugated metabolites in organic solvents.
Unconjugated or uncoupled products were first extracted with ethyl acetate (step A) and aliquots of aqueous layers were treated with equal volumes of glucarase (a preparation of β-glucuronidase and sulfatase) or with buffer (control); see following section. The glucuronide and the sulfate derivatives were thus deconjugated and the freed products were extracted in ethyl acetate (step B). A highly sensitive technique for detection of a series of AMD analogues using HPLC was employed; sensitivity of this assay ranges from 50 nmol when UV-visible absorbances are used to 1 pmol when radioactive analogues of appropriate specific activities are used.
The products in the ethyl acetate extracts were analyzed by HPLC using system I. Prior to deconjugation, the above aqueous layers were examined by systems II and III, which are more suitable for the water-soluble metabolites.
The aqueous layers from step B were combined with the material which was left as residues in the cones in step A. The residues in the cones were extracted in dilute sodium hydroxide and separated from the cell debris by centrifugation (2500 rpm), and the biopolymers were precipitated from the extract with excess ethanol. The precipitated polymers, mostly protein, were lyophilized and dissolved in 0.05M Tris-HCl and were fractionated on Superfine Sephacryl S-200 and the molecular weights of the major fractions were approximated. The major parts of radioactivity were confined to high molecular weight proteins with molecular weights above 67000. The amount of the tissue-bound material was estimated from the pellets in the above centrifugation (2500 rpm). The percentages were calculated on the basis of the total radioactive materials recovered. In most cases, it was over 90%.

| Compound | P388/ADR % ILS ([1]; at optimal dose) [%] | P388/ADR tumor-free survivors/total on day 60 ([1]; at optimal dose) | P388/ADR optimal dose [1] [mg/kg] | change in intrinsic viscosity of DNA / intercalative binding by viscometry [2] | free-radical intermediate detected by EPR [3] | Percent isolated: "tissue" bound [4] [%] | Percent isolated: protein conjugates [4] [%] | Percent isolated: unidentified metabolite [4] [%] | Percent metabolite isolated: 4a glucuronide and/or sulfate [4] [%] | Percent metabolite isolated: "symmetrical" AMD (4a) [4] [%] | Percent isolated: unconverted [4] [%] | Percent metabolite isolated: 2a glucuronide and/or sulfate [4] [%] | Percent metabolite isolated: 7-hydroxy-AMD (2a) [4] [%] |
| --- | --- | --- | --- | --- | --- | --- | --- | --- | --- | --- | --- | --- | --- |
| Cc1c2oc3c(C)c(O)c(N)c(C(=O)NC4C(=O)NC(C(C)C)C(=O)N5CCCC5C(=O)N(C)CC(=O)N(C)C(C(C)C)C(=O)OC4C)c3nc-2c(C(=O)NC2C(=O)NC(C(C)C)C(=O)N3CCCC3C(=O)N(C)CC(=O)N(C)C(C(C)C)C(=O)OC2C)c(N)c1=O (centres unmarked) [4a, 7-Hydroxy-8-amino-actinomycin D] | 176 | 3/8 | 1.2 | lack of intercalative binding | Free-radical intermediates were also detected |  |  |  |  |  |  |  |  |
| Cc1nc2c(C(=O)NC3C(=O)NC(C(C)C)C(=O)N4CCCC4C(=O)N(C)CC(=O)N(C)C(C(C)C)C(=O)OC3C)c3nc4c(C(=O)NC5C(=O)NC(C(C)C)C(=O)N6CCCC6C(=O)N(C)CC(=O)N(C)C(C(C)C)C(=O)OC5C)c(N)c(=O)c(C)c-4oc3c(C)c2o1 [7a, 7-Amino-2,9,11-trimethyl-8H-8-oxooxazolo [4,5-b]phenoxazine 4,6-bis[carbonyl-L-threonyl-D-valyl-L-prolylsarcosyl-L-N-methylvaline-(threonine hydroxyl)] lactone] |  |  |  |  | Free-radical intermediates were also detected | 8.8 | 5.5 | 12.7 | 17.5 | 15.5 | 40 |  |  |
| Cc1nc2c(C(=O)NC3C(=O)NC(C(C)C)C(=O)N4CCCC4C(=O)N(C)CC(=O)N(C)C(C(C)C)C(=O)OC3C)c3nc4c(C(=O)NC5C(=O)NC(C(C)C)C(=O)N6CCCC6C(=O)N(C)CC(=O)N(C)C(C(C)C)C(=O)OC5C)cc(=O)c(C)c-4oc3c(C)c2o1 (centres unmarked) [9a] |  |  |  |  |  | 7.5 | 5.5 | 46.3 |  |  | 20 | 12.2 | 8.5 |
| Cc1c2oc3c(C)ccc(C(=O)N[C@@H]4C(=O)N[C@H](C(C)C)C(=O)N5CCC[C@H]5C(=O)N(C)CC(=O)N(C)[C@@H](C(C)C)C(=O)O[C@@H]4C)c3nc-2c(C(=O)N[C@@H]2C(=O)N[C@H](C(C)C)C(=O)N3CCC[C@H]3C(=O)N(C)CC(=O)N(C)[C@@H](C(C)C)C(=O)O[C@@H]2C)c(N)c1=O [AMD, Actinomycin D] (I: T[dV]P[Sar][NMeV] / II: T[dV]P[Sar][NMeV]; ester I:1-I:C, II:1-II:C; linker I:N-II:N via Actinocin(9to1)) | 22 |  | 0.25 | steady rise in the value of γ | free-radical intermediate with broad resonance peaks was detected |  |  |  |  |  | 100 |  |  |
